Reference: PubChem BioAssay AID602443 (National Center for Advancing Translational Sciences (NCATS), 2012)
≈ marks a conversion by molar mass, not a printed value.

Test system: aqueous kinetic solubility
Assay: High Content Assay for Compounds that inhibit the Assembly of the Perinucleolar Compartment: Aqueous Kinetic Solubility
Description: The perinucleolar compartment (PNC) is a non-membrane-bound nuclear subdomain that is associated with but structurally distinct from the nucleolus. The PNC is a heritable trait, in which the number of PNCs per cell in daughter cells often mimics that of their mother cells. The PNC is heterogeneous in shape, is stable through interphase, disassembles during mitosis, and reassembles in early G1. The PNC is concentrated with newly synthesized RNA polymerase III (pol III) RNAs (MRP RNA, RNAse P H1 RNA, hY RNAs[hY1, 2, 5], Alu RNA, and SRP [7SL] RNA) and RNA binding proteins (nucleolin, PTB, CUG-BP, KSRP, Raver1, Raver2, and Rod).
Extensive in vitro studies have shown that the PNC is unique to tumor cells and preferentially forms in tumor cells derived from solid tissues. Examination of cancer cell lines from various origins and malignant capacities has shown that PNC prevalence correlates with the malignancy of tumors and has the potential to be developed as a pan-cancer prognostic marker.
This bioassay provides profiling data on aqueous kinetic solubility (PBS @ pH 7.4) of some of the lead compounds developed for this project.
NIH Chemical Genomics Center [NCGC]
NIH Molecular Libraries Probe Centers Network [MLPCN] […]
5. Concentration of the supernatant was determined by LC-UV or LC-MS/MS

Question: For `N=c1c2c(-c3ccccc3)c(-c3ccccc3)n(Cc3ccccc3)c2ncn1C1CCC(O)CC1` (stereo unspecified), which solubility is on record?
Answer: 150 µM (≈ 71.2 µg/mL)
